Test results: patent publication US10750743B2, “Pyridazinone herbicides” (E.I. DU PONT DE NEMOURS AND COMPANY, priority 2015, dated 2020)

Columns and labels:
Type in all cases: in vivo
[1] = system: ryegrass, It. (Italian ryegrass, Lolium multiflorum); assay: Test A postemergence application, visual injury rating; conditions: 0 to 100 scale, 0 no effect, 100 complete control
In short: (§1)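 Seeds sown in a loam soil–sand blend received a directed preemergence soil spray of test chemical in a non-phytotoxic solvent mixture with surfactant. Postemergence plants were sprayed at 2 to 10 cm, one- to two-leaf stage. After approximately 10 d in greenhouse, injury was visually rated 0 (no effect) to 100 (complete control) against untreated controls.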

kochia (Kochia scoparia) [2] = assay: as above; conditions: 0 to 100 scale, 0 no effect, 100 complete control
In short: as §1

[3] = system: ragweed (common ragweed, Ambrosia elatior); assay: as above; conditions: 0 to 100 scale, 0 no effect, 100 complete control
In short: as §1

[4] = system: wheat (Triticum aestivum); assay: as above; conditions: 0 to 100 scale, 0 no effect, 100 complete control
In short: as §1

[5] = system: blackgrass (Alopecurus myosuroides); assay: as above; conditions: 0 to 100 scale, 0 no effect, 100 complete control
In short: as §1

[6] = system: galium (catchweed bedstraw, Galium aparine); assay: as above; conditions: 0 to 100 scale, 0 no effect, 100 complete control
In short: as §1

corn (Zea mays) = assay: as above; conditions: 0 to 100 scale, 0 no effect, 100 complete control
In short: as §1

[7] = system: foxtail, giant (giant foxtail, Setaria faberii); assay: as above; conditions: 0 to 100 scale, 0 no effect, 100 complete control
In short: as §1

[8] = system: barnyardgrass (Echinochloa crus-galli); assay: as above; conditions: 0 to 100 scale, 0 no effect, 100 complete control
In short: as §1

[9] = system: pigweed (Amaranthus retroflexus); assay: as above; conditions: 0 to 100 scale, 0 no effect, 100 complete control
In short: as §1

[10] = system: ryegrass, It. (Italian ryegrass, Lolium multiflorum); assay: Test A preemergence, directed soil spray, visual injury rating; conditions: 0 is no effect, 100 is complete control
In short: as §1

kochia (Kochia scoparia) [11] = assay: as above; conditions: 0 is no effect, 100 is complete control
In short: as §1

[12] = system: ragweed (common ragweed, Ambrosia elatior); assay: as above; conditions: 0 is no effect, 100 is complete control
In short: as §1

[13] = system: foxtail, giant (giant foxtail, Setaria faberii); assay: as above; conditions: 0 is no effect, 100 is complete control
In short: as §1

[14] = system: barnyardgrass (Echinochloa crus-galli); assay: as above; conditions: 0 is no effect, 100 is complete control
In short: as §1

[15] = system: pigweed (Amaranthus retroflexus); assay: as above; conditions: 0 is no effect, 100 is complete control
In short: as §1

[16] = system: sedge, umbrella (small-flower umbrella sedge, Cyperus difformis); assay: Test B flooded paddy test, visual rating; conditions: Flood, 250 g ai/ha, applied to paddy water, rated after 13 to 15 d
In short: (§2)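 Plants at the 2-leaf stage were flooded to 3 cm above soil, and test compounds were applied directly into the paddy water, which was held at that depth throughout. After 13 to 15 d in a greenhouse, injury was rated visually against untreated controls on a 0–100 scale (0 no effect, 100 complete control).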

rice (Oryza sativa) = assay: Test B flooded paddy test, visual rating; conditions: Flood, 250 g ai/ha, applied to paddy water, rated after 13 to 15 d
In short: as §2

[17] = system: ducksalad (Heteranthera limosa); assay: Test B flooded paddy test, visual rating; conditions: Flood, 250 g ai/ha, applied to paddy water, rated after 13 to 15 d
In short: as §2

[18] = system: barnyardgrass (Echinochloa crus-galli); assay: Test B flooded paddy test, visual rating; conditions: Flood, 250 g ai/ha, applied to paddy water, rated after 13 to 15 d
In short: as §2

SMILES: CCC(=O)Oc1c(C)nn(C)c(=O)c1-c1c(C)ccc2cc(C)oc12 [Compound 22]
- Ryegrass, It. plant response rating ([1]; 31 g ai/ha): 70
- Ryegrass, It. plant response rating ([1]; 125 g ai/ha): 80
- Kochia plant response rating (kochia (Kochia scoparia) [2]; 31 g ai/ha): 70
- Kochia plant response rating (kochia (Kochia scoparia) [2]; 125 g ai/ha): 90
- Ragweed plant response rating ([3]; 31 g ai/ha): 70
- Ragweed plant response rating ([3]; 125 g ai/ha): 90
- Wheat plant response rating ([4]; 31 g ai/ha): 0
- Wheat plant response rating ([4]; 125 g ai/ha): 0
- Blackgrass plant response rating ([5]; 31 g ai/ha): 30
- Blackgrass plant response rating ([5]; 125 g ai/ha): 80
- Galium plant response rating ([6]; 31 g ai/ha): 70
- Galium plant response rating ([6]; 125 g ai/ha): 90
- Corn plant response rating (corn (Zea mays); 31 g ai/ha): 0
- Corn plant response rating (corn (Zea mays); 125 g ai/ha): 0
- Foxtail, Giant plant response rating ([7]; 31 g ai/ha): 30
- Foxtail, Giant plant response rating ([7]; 125 g ai/ha): 70
- Barnyardgrass plant response rating ([8]; 31 g ai/ha): 10
- Barnyardgrass plant response rating ([8]; 125 g ai/ha): 10
- Pigweed plant response rating ([9]; 31 g ai/ha): 60
- Pigweed plant response rating ([9]; 125 g ai/ha): 90
- Plant response rating (0 to 100 scale), Ryegrass, It. ([10]; 31 g ai/ha): 30
- Plant response rating (0 to 100 scale), Ryegrass, It. ([10]; 125 g ai/ha): 80
- Plant response rating (0 to 100 scale), Kochia (kochia (Kochia scoparia) [11]; 31 g ai/ha): 30
- Plant response rating (0 to 100 scale), Kochia (kochia (Kochia scoparia) [11]; 125 g ai/ha): 90
- Plant response rating (0 to 100 scale), Ragweed ([12]; 31 g ai/ha): 20
- Plant response rating (0 to 100 scale), Ragweed ([12]; 125 g ai/ha): 80
- Plant response rating (0 to 100 scale), Foxtail, Giant ([13]; 31 g ai/ha): 0
- Plant response rating (0 to 100 scale), Foxtail, Giant ([13]; 125 g ai/ha): 50
- Plant response rating (0 to 100 scale), Barnyardgrass ([14]; 31 g ai/ha): 0
- Plant response rating (0 to 100 scale), Barnyardgrass ([14]; 125 g ai/ha): 10
- Plant response rating (0 to 100 scale), Pigweed ([15]; 31 g ai/ha): 100
- Plant response rating (0 to 100 scale), Pigweed ([15]; 125 g ai/ha): 100
- Sedge, Umbrella plant response rating (0 to 100 scale, 0 is no effect, 100 is complete control) [16]: 0
- Rice plant response rating (0 to 100 scale, 0 is no effect, 100 is complete control) (rice (Oryza sativa)): 0
- Ducksalad plant response rating (0 to 100 scale, 0 is no effect, 100 is complete control) [17]: 0
- Barnyardgrass plant response rating (0 to 100 scale, 0 is no effect, 100 is complete control) [18]: 0
